This is an account of results in patent US12110287B2, “Heterocyclic derivatives as Nav1.7 and Nav1.8 blockers” (RaQualia Pharma Inc., priority 2018, dated 2024).

This assay deals with Nav1.7 (Homo sapiens, UniProt Q15858). As to the kind of experiment: Electrophysiology assay (whole cell patch clamp), affinity to inactivated state. The format is cell-based. To be noted: affinity to inactivated state (Kinact), read-out: activity (Ki) against Nav1.7. More on the design: expressed in transfected cells. The method, then: Whole cell patch clamp recording is used to assess the efficacy or selectivity of Na (Sodium) channel blocker on human voltage gated sodium channels. Na channel expressing cells are dissociated by 0.05% Trypsin-EDTA or Accutase, and then seeded on cover glass for 2-24 hours.
Manual patch clamp recordings are conducted at rt using the voltage-clamp amplifier (Axon Instruments or HEKA electronik). Electrodes are pulled with P-97 electrode puller (Sutter Instrument). The electrode resistances are 1-3 MOhm when intercellular solution is filled. Currents are lowpass filtered between 2-5 kHz and digitally sampled at 10 kHz. […]
After whole-cell configuration is achieved, cell is monitored at least 10 minutes to allow cell dialysis with pipette solution. […]
Peak currents evoked by Test 1 and Test 2 pulses are sampled with Clampex (Axon Instruments) or Pulse+Pulse Fit (HEKA). Averaged peak currents under vehicle or test compounds are calculated from 3 data points at end of each condition.
Inhibitory effects (% inhibition) on peak currents at Test 1 or Test 2 pulse are plotted against test concentration and IC50 values at Test 1 (Closed IC50) or Test 2 (Inactivated IC50) are calculated with Hill equation, respectively. […]
After whole-cell configuration is achieved, the cell is monitored at least 10-15 minutes to allow cell dialysis with pipette solution. […]
(In general: In patch-clamp work, channel activity is measured electrically.)

Chain of Nav1.7 (Q15858 whole entry): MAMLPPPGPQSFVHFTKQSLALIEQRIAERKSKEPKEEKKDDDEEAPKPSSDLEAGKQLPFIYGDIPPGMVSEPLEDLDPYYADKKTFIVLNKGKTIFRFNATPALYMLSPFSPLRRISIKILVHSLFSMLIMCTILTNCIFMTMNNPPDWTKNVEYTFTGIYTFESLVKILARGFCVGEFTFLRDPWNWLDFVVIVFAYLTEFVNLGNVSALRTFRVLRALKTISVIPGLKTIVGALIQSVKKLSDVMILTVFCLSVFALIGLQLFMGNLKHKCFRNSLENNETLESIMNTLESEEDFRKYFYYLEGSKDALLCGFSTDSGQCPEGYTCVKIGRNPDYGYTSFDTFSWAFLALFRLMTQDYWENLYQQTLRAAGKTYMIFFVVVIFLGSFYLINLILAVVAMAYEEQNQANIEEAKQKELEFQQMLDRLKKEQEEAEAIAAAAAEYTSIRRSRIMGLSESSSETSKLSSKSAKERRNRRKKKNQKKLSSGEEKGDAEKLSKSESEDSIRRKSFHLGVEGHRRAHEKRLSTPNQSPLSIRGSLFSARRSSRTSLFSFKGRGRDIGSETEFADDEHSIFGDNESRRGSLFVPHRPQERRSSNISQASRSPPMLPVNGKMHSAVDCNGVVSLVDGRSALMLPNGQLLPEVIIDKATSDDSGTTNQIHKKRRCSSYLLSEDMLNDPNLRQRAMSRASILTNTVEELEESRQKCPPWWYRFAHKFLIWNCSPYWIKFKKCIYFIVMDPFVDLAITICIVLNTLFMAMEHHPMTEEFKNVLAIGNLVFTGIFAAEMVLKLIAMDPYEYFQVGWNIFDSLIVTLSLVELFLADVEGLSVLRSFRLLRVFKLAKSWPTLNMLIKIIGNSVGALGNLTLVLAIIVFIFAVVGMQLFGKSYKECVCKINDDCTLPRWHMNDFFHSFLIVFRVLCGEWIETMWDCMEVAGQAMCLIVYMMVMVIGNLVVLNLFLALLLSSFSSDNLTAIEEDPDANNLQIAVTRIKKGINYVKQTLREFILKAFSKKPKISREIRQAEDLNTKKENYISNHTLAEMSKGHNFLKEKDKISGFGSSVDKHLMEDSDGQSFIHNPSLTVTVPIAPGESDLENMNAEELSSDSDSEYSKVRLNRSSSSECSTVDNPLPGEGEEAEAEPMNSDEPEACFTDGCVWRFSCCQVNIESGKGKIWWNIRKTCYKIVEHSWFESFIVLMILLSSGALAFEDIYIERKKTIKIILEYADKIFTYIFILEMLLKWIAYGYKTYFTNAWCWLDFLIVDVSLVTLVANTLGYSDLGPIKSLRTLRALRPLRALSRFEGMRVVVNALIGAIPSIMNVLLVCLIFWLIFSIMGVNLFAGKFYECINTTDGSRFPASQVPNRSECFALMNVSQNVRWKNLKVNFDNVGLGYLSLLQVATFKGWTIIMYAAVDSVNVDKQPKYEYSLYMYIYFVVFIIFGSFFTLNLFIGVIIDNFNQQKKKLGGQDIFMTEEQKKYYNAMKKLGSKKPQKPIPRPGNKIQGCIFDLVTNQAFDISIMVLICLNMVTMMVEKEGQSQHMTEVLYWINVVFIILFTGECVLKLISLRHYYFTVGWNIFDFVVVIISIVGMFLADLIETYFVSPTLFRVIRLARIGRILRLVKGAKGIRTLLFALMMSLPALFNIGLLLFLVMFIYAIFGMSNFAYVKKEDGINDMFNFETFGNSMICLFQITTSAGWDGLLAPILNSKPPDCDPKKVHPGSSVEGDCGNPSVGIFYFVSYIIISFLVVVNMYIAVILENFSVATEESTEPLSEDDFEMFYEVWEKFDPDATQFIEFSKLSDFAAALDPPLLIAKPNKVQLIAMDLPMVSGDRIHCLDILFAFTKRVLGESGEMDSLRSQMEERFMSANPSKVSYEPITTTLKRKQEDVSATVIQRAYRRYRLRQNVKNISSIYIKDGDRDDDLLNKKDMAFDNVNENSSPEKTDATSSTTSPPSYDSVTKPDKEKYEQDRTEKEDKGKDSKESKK

As to `O=C(N[C@@H]1CCCN(c2ncc(C(F)(F)F)cc2Cl)C1)c1ccnc(NC(=O)C2CC2)c1` [Example 7], the Ki was less than 200 nM.
